Measurements: ChEMBL document CHEMBL1201862, “PubChem BioAssay data set” (2004)
Calls of active or inactive are those of the source.

Tests used:
Format in all cases: functional
[1] = target: T1, Sentrin-specific protease 6 (Homo sapiens, UniProt Q9GZR1); test: SAR Analysis of small molecule inhibitors of Sentrin-specific protease 6 (SENP6) using a Luminescent assay. [Related pubchem assays (depositor defined):AID2582, AID2599]
T1 sequence (Q9GZR1 whole entry): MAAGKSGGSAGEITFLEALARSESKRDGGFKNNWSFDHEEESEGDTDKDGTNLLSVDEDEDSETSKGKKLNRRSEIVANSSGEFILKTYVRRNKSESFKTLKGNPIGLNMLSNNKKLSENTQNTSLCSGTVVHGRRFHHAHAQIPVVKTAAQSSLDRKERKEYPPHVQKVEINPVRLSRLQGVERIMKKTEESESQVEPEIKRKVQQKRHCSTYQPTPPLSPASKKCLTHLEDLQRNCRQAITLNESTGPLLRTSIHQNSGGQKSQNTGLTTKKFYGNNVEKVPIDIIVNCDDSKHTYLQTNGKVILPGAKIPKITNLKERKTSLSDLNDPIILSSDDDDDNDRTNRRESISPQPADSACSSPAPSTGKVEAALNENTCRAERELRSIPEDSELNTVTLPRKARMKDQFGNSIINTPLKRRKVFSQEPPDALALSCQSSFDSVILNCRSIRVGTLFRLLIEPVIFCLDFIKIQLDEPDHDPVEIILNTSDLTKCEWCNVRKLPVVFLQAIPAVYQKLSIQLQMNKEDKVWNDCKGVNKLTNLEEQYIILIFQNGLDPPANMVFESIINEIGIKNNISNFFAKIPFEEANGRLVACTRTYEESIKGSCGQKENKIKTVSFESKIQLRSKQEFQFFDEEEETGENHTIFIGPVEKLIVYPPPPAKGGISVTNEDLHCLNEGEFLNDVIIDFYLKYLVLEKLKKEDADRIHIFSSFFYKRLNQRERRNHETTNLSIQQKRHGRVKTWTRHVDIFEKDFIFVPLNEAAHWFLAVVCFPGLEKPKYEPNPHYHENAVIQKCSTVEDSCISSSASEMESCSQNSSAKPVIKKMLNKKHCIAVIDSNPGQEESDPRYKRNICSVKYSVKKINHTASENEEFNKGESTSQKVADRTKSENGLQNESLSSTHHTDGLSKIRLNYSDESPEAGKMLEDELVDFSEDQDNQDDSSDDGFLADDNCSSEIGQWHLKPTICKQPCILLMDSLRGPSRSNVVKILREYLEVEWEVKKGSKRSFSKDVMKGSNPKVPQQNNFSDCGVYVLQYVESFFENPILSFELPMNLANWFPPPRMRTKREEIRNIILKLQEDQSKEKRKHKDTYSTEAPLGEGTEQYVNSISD

[2] = target: T2, Oxysterols receptor LXR-beta (Homo sapiens, UniProt P55055); test: LXR agonists, Gal4 luciferase reporter, dose response, counter-screen for ssDAF-12 agonist project, cell-based, luminescence, HEK293, S. stercoralis campaign (AID 720737); details: read-out: IC50 (the source's name)
T2 sequence (P55055 whole entry): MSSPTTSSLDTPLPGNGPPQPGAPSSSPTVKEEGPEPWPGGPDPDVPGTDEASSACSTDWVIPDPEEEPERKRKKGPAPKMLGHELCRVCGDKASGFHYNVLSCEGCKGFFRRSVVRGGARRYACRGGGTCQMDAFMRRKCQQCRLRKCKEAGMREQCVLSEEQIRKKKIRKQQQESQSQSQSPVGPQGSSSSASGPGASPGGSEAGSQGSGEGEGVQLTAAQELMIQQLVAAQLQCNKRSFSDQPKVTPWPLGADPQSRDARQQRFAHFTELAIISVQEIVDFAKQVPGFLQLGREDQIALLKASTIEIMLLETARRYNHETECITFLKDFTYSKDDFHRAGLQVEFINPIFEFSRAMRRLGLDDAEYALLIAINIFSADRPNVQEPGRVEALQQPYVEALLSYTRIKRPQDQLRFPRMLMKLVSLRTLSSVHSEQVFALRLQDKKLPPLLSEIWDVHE

[3] = Luminescence Cell-Based Dose Confirmation HTS to Identify Activators of 5'UTR Stem-Loop Driven Alpha-Synuclein mRNA Translation in H4 Neuroglioblastoma Cells. [Related pubchem assays: 1829 (Project Summary), 1814 (Primary HTS)]
[4] = target: Ribosomal protein S6 kinase alpha-3 (Homo sapiens, UniProt P51812);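 also: measured within a kinome-wide profiling panel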
Sequence of Ribosomal protein S6 kinase alpha-3 (P51812 whole entry): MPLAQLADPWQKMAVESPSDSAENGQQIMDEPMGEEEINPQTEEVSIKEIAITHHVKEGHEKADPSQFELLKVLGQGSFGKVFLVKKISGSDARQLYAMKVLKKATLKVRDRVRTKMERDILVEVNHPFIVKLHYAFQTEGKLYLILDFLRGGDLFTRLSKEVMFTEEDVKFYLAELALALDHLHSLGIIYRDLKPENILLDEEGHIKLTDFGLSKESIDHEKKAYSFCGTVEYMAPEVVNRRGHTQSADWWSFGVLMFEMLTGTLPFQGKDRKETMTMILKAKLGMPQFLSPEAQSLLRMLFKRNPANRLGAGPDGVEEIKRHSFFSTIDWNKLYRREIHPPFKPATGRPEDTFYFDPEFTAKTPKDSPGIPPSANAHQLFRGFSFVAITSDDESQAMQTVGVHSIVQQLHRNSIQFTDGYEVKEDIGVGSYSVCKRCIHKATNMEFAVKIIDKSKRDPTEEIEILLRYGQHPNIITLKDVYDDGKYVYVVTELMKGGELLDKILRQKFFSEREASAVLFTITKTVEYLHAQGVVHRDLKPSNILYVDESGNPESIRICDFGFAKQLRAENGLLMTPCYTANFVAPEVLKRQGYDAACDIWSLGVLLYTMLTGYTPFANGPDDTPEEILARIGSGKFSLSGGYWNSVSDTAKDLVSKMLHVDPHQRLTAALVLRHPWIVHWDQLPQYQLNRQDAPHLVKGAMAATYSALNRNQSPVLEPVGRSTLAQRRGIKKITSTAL

[5] = target: Mitogen-activated protein kinase kinase kinase kinase 4 (Homo sapiens, UniProt O95819)
[6] = target: Vascular endothelial growth factor receptor 3 (Homo sapiens, UniProt P35916);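 also: value from a kinome-wide profiling panel, with FLT4 as the panel member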
[7] = target: Serine/threonine-protein kinase PLK1 (Homo sapiens, UniProt P53350);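 also: PLK1 measured as one member of a kinome-wide profiling panel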
Sequence of Serine/threonine-protein kinase PLK1 (P53350 whole entry): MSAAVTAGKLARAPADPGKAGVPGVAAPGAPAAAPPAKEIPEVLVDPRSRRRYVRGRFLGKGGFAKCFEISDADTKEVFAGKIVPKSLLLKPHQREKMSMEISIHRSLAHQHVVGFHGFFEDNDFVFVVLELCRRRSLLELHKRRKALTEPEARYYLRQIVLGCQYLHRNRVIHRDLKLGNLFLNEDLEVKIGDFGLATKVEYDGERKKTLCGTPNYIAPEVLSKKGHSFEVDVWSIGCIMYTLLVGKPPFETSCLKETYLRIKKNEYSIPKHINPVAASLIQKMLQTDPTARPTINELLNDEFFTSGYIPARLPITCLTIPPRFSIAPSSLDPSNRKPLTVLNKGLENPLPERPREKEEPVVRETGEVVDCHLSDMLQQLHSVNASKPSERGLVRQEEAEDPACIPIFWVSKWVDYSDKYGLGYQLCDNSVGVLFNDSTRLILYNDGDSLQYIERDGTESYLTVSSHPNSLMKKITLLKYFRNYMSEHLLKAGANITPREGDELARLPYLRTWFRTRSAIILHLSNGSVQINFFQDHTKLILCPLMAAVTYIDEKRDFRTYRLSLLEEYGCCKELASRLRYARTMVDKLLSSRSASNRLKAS

[8] = target: Tyrosine-protein kinase receptor TYRO3 (Homo sapiens, UniProt Q06418);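 also: TYRO3 value obtained as one member of a kinome-wide profiling panel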
Sequence of Tyrosine-protein kinase receptor TYRO3 (Q06418 whole entry): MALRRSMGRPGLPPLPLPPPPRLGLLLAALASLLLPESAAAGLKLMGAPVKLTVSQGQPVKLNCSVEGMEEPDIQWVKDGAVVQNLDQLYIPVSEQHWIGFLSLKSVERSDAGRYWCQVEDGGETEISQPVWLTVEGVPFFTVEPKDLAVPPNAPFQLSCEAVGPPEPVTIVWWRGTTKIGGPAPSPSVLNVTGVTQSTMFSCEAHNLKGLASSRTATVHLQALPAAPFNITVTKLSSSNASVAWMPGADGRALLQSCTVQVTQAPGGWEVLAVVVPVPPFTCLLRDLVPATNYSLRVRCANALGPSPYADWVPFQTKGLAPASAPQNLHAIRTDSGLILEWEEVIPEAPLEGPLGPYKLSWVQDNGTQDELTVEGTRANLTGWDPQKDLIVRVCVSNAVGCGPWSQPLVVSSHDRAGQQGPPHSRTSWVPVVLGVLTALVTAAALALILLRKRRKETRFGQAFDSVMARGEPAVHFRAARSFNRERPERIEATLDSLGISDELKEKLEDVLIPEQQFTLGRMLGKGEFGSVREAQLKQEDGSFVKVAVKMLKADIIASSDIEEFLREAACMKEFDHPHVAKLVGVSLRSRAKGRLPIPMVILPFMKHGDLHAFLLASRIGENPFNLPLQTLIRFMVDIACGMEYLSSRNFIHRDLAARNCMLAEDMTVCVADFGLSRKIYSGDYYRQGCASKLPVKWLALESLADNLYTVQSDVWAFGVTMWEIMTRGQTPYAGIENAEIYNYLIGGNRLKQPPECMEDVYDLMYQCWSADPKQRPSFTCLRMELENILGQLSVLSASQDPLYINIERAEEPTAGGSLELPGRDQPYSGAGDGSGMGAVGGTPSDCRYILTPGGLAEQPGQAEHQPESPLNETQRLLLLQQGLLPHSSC

[9] = target: High affinity nerve growth factor receptor (Homo sapiens, UniProt P04629);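 also: NTRK1 tested as one member of a kinome-wide profiling panel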
[10] = target: Tyrosine-protein kinase ABL1 (Homo sapiens, UniProt P00519)
Sequence of Tyrosine-protein kinase ABL1 (P00519 whole entry): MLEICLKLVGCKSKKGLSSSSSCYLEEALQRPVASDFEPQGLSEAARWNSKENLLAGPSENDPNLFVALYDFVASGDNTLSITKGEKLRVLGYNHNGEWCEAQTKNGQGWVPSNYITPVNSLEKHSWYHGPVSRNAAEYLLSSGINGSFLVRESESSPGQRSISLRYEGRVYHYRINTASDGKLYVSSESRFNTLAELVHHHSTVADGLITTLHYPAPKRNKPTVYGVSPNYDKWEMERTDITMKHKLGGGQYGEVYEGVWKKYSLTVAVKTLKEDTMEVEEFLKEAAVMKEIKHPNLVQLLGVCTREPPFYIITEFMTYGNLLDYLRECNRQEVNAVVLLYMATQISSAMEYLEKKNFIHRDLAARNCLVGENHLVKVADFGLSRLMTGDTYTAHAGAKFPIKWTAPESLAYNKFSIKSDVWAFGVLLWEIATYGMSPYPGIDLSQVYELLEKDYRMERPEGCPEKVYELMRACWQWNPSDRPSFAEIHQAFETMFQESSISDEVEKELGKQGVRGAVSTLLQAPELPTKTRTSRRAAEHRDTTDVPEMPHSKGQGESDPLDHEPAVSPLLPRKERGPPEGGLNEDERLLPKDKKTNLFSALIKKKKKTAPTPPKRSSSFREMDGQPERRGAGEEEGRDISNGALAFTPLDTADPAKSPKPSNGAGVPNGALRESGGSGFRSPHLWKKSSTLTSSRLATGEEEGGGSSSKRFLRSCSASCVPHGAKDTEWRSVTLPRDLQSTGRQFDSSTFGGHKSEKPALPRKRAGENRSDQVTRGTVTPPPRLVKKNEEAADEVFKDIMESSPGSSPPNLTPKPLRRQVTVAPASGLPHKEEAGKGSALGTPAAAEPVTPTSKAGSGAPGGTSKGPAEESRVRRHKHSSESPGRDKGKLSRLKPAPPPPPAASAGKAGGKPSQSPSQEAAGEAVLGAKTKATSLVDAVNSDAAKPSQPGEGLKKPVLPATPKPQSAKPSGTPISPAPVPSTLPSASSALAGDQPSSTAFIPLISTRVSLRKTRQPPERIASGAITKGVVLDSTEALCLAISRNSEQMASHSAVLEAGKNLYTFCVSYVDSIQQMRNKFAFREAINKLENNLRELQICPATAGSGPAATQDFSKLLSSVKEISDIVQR

[11] = target: Serine/threonine-protein kinase PLK3 (Homo sapiens, UniProt Q9H4B4)
Sequence of Serine/threonine-protein kinase PLK3 (Q9H4B4 whole entry): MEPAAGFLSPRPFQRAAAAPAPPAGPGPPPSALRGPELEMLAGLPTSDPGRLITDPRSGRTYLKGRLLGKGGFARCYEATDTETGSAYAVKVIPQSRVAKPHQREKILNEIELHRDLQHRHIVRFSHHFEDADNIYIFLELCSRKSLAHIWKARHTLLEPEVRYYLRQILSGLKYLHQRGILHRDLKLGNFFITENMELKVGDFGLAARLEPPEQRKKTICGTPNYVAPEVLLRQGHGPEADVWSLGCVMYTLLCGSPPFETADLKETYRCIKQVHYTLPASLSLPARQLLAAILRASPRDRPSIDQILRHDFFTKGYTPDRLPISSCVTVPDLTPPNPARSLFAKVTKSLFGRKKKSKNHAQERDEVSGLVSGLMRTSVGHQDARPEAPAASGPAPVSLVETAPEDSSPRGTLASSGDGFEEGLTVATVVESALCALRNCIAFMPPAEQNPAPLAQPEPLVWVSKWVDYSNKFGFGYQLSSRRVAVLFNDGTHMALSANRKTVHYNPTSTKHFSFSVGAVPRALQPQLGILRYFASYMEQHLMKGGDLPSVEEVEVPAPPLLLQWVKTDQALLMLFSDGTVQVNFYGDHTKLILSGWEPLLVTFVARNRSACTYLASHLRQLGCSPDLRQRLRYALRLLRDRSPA

[12] = target: Sphingosine 1-phosphate receptor 1 (Homo sapiens, UniProt P21453);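 also: Tango beta-arrestin reporter U2OS cells stimulated with S1P near its EC80; inhibitor potency meaning antagonism of receptor activation by the natural agonist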
Sequence of Sphingosine 1-phosphate receptor 1 (P21453 whole entry): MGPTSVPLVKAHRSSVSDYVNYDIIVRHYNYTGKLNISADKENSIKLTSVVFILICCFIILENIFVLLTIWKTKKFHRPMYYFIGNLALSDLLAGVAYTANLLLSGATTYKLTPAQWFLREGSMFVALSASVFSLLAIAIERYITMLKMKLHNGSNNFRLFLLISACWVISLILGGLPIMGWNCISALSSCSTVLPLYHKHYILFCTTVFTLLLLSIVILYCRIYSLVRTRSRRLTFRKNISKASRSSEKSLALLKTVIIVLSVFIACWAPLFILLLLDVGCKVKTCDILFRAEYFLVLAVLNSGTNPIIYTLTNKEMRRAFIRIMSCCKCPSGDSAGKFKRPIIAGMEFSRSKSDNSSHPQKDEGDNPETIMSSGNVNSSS

[13] = target: T3, Sphingosine 1-phosphate receptor 4 (Homo sapiens, UniProt O95977); test: Fluorescence dose response cell-based high throughput screening assay for antagonists of the Sphingosine 1-Phosphate Receptor 4 (S1P4). [Related pubchem assays: 1524 (Confirmation in triplicates.), 1510 (Primary screen.)]
T3 sequence (O95977 whole entry): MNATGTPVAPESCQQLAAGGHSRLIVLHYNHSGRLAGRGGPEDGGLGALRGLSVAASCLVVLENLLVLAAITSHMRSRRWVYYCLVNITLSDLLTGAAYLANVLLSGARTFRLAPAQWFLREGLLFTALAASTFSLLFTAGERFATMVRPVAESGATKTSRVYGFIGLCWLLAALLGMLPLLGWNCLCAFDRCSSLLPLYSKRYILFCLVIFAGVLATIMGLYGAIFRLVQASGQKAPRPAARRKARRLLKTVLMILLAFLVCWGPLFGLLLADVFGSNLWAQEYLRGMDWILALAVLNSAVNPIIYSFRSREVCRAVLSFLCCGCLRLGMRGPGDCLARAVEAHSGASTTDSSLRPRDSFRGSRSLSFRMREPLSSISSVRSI

Wee1-like protein kinase = Wee1-like protein kinase (Homo sapiens, UniProt P30291); test: Dose Response Cell-based Assay for Inhibitors of Wee1 Degradation. [Related pubchem assays: 1410, 1321 ]
Sequence of Wee1-like protein kinase (P30291 whole entry, the tested form may be a part): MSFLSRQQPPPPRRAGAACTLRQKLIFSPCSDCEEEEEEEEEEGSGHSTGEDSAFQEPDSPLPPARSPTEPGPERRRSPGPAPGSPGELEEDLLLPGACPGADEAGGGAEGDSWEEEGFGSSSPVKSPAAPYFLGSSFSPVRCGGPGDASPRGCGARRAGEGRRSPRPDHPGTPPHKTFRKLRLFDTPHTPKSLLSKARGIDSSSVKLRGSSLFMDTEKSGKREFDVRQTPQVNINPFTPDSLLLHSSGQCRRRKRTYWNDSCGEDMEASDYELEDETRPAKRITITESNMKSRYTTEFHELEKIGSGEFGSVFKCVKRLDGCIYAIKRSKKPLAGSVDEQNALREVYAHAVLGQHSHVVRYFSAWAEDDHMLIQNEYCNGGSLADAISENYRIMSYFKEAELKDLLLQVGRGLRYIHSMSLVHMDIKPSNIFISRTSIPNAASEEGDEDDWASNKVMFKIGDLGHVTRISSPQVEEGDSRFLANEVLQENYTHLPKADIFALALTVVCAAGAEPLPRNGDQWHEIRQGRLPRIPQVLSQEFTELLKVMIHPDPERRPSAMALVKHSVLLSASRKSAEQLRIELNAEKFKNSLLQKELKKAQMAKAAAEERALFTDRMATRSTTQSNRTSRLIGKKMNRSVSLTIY

[14] = Fluorescence-based cell-based high throughput dose response assay for inhibitors of the interaction of nucleotide-binding oligomerization domain containing 2 (NOD2) and the receptor-interacting serine-threonine kinase 2 (RIPK2).; details: Homo sapiens

Q: Which IC50 [1] does the source give for `Cc1cnc(NC(=O)c2sc3ccccc3c2Cl)s1` here?
A: 3.95 µM (active)

Q: What about the EC50 [2] of the same molecule?
A: > 67.5 µM (inactive)

Q: With `CN(C)c1ncc(C2=C(Cl)C(=O)C(N3CCCC3)=C(Cl)C2=O)s1` as the molecule, how does the EC50 [3] read?
A: > 120 µM (not active)

Q: What does the source list for `O=C1NC(=S)SC1=C1C(=O)Nc2ccc(Br)cc21`?
A: Ki [4]: > 7.94 µM (inactive); Ki [5]: 0.631 µM (active); Ki [6]: > 6.31 µM (inactive); Ki [7]: 6.31 µM (active); Ki [8]: > 2 µM (inactive); Ki [9]: > 2.51 µM (inactive); Ki [10]: > 0.631 µM (inactive); Ki [11]: 3.16 µM (active)

Q: Which results are given for `Cc1ccc(Nc2cc(C)nn2-c2nc(C)cc(O)n2)cc1`?
A: IC50 [12]: 0.764 µM (active); IC50 [13]: 0.17 µM (active); EC50 (Wee1-like protein kinase): > 1.84 µM (active)

Q: With `Cc1ccc(C(=O)c2c(C)oc3c2C(=O)C(=O)c2ccccc2-3)cc1` as the molecule, how does the IC50 [14] read?
A: 6.83 µM (active)
